Measurements from US20040171613A1, “Therapeutic agent for non-immediate type allergic diseases” (JAPAN TOBACCO INC., priority 2001, published 2004).
Read-outs that look alike come from different tables or passages of the source.

Tests used:
[1] = tested on: IgE-dependent allergic dermatitis; test: murine IgE-dependent allergic dermatitis (triphase ear swelling); type: in vivo, mouse; conditions: oral 10 mg/kg
Method: A model was produced by passive sensitization of a mouse with IgE and repeated antigen challenge to trigger triphase (early phase, late phase and very late phase) dermatitis (Pharmacology, 60(2), 97-104, February 2000). Relation of mast cells and T cells, as well as invasion of eosinophils in local inflammatory sites is confirmed in these reactions.
In addition, as positive controls, similarly to the test compound, 1 mg/mL ketotifen fumarate (Sigma) and 3 mg/mL pranlukast hydrate (extracted from Onon™ (Ono Pharmaceutical Co., Ltd.)) were prepared. Pranlukast hydrate is used as a leukotriene inhibitor for therapeutic agents for asthma and allergic rhinitis. Ketotifen fumarate is used as a chemical mediator release suppressor for asthma, allergic rhinitis, eczema, dermatitis, urticaria, dermal pruritis and allergic conjunctivitis.
During the period from the antigen application day to the start of the dosing of the test compound, in place of the test compound, only the solvent was orally administered at 10 mL/kg once a day.
FIGS. 4 to 6 show the results of each measurement.

[2] = tested on: spontaneous scratching reaction; test: spontaneous scratching reaction of NC mouse; type: in vivo; conditions: NC/Jic mice; oral once a day for 3 weeks; vs solvent control
Excerpt: Currently, NC mouse is used as an animal model of atopic dermatitis. No dermatitis or scratching action is observed when the mouse is kept in an environment under the control of atmospheric microorganisms (in SPF environment). However, when the mouse is kept in a conventional environment, scratching action together with the onset of dermatitis can be observed from about week 8 and the symptom progresses into chronic symptom (J. Dermatol. Sci., 25, 20-28, 2001).
Preparation of solvent: MC was dissolved in tap water to prepare an aqueous 0.5% (w/v) MC solution.
As positive controls, betamethasone valerate (Sigma) and tacrolimus hydrate (extracted from Prograf (Fujisawa Pharmaceutical Co., Ltd.)) were similarly prepared to 1 mg/mL. Betamethasone valerate is one of the adrenocorticosteroids that is considered to be effective for the treatment of atopic dermatitis. Tacrolimus hydrate is a therapeutic agent of atopic dermatitis which is known as an immunosuppressor as described above.
The mice (A) were taken away from the cage and the NC/Jic mice were used at the age of 16 weeks.
Breeding conditions: The mice were fed with solid feed CA-1 (CLEA JAPAN INC.) ad libitum and tap water as drinking water ad libitum, and kept at a temperature of 22±2° C. and a humidity of 55±10% under lighting from 8:00 a.m. to 20:00 p.m.
From 10 days before the start of the experiment, the number of scratching behavior with hind legs of the mice was visually counted (for 20 minutes; once daily) over 2 days or 3 days. Among the plural mice counted, mice with 50 or more average scratching movements per day were selected for use.
The behavior of the mice was filmed under unattended environment with a video camera to count the scratching motion with hind legs for one hour. […] This series of scratching motions was counted as one scratching movement, and all such scratching movements were counted irrespective of scratched sites. The measurement was done on the starting day of administration, and one day, 3, 6, 10, 13, 17 and 20 days after the start of administration. […]

human basophils = test: leukotriene production from human basophils; type: cell-based; conditions: anti-human IgE antibody stimulation; IL-3 preincubation
Method: To act them on cells, the solutions were further diluted to 10 μM to 0.01 μM (0.1% DMSO solution).
Using a syringe charged with 3.8% sodium citrate solution, 100 mL blood was obtained from human blood.
Using 10× HBSS (−) (10×Hank's balanced salt solution, GIBCO), Percoll (Amersham) and Milli Q water, 1.070 g/mL, 1.079 g/mL and 1.088 g/mL Percoll-HBSS (−) were prepared and layered, and the obtained blood was loaded on the layers and centrifuged at 300× g for 25 minutes. A cell fraction between the 1.070 g/mL Percoll-HBSS (−) layer and the 1.079 g/mL Percoll-HBSS (−) layer was recovered. 3 volumes of HBSS (−) was added to the recovered cell suspension and centrifuged at 300× g at 4° C. for 7 minutes. After centrifugation, the supernatant was discarded and the cells were rinsed once with HBSS (−). Thus recovered cell population was used as the basophils.
The basophils were prepared to 2.5×10^6 cells/mL with Tyrode solution, and 10 μg/mL recombinant human IL-3 (Genzyme/Techne) was added to a final concentration of 100 ng/mL. Immediately thereafter, 80 μL/well ([…]) of basophils were seeded on a round-bottom 96-well plate and were incubated in 5% CO2 at 37° C. for 30 minutes.
After preincubation, 10 μL/well of the above-described test compound was added and incubated in 5% CO2 at 37° C. for 10 minutes. […]

[3] = tested on: IgE-dependent allergic dermatitis; conditions: mouse, in vivo
Method: Using a triphase dermatitis model that can be induced by antigen in mouse passively sensitizationed with IgE, the actions of CB2 inverse agonist and CB2 agonist were examined.
*Animal: 8 to 10 weeks-old Female BALB/c mouse (Japan SLC Inc.) was used.
Preparation of solvent: MC was dissolved in distilled water to prepare an aqueous 0.5% MC solution.
Anti-DNP IgE (antibody against DNP; Yamasa Corp.) was prepared to 15 μg/mL with physiological saline. 0.2 mL of the resulting solution was given through the caudal vein to the mouse.
Antigen preparation: 0.15% (w/v) of DNFB (2,4-dinitrofluorobenzene) was prepared in a mixed solution of acetone and olive oil (3:1, v/v) on needed basis.
Antigen application: 25 μl of the antigen solution was applied on each side of both of the ears 24 hours after the administration of the anti-DNP IgE.
From the next day of the antigen application to day 8 after the antigen application, 10 mL/kg test compound was orally administered once a day 9 times in total. On the day of antigen application, the test compound was administered one hour before the antigen application and the test compound was administered one hour before the measurement of the thickness of the ear on day 8 after the antigen application.
Before and 8 days after the antigen application, the thickness of the ear was measured with a dial thickness gauge (Mitutoyo Corp.). The difference between the value measured before the antigen application and at each time point was used as an index of swelling.
After the measurement of ear swelling, spleen and thymus were harvested to weigh their wet weights.

## CCCCCOc1c(OC)ccc2cc(C(=O)NCc3ccc4c(c3)OCO4)c(=O)[nH]c12 [Compound A, N-(benzo[1,3]dioxol-5-ylmethyl)-7-methoxy-2-oxo-8-pentyloxy-1,2-dihydroquinoline-3-carboxamide]
[1]; 24 hours after antigen application
  ear swelling, late phase: significantly suppressed ear swelling
[1]; 8 days after antigen application
  ear swelling, very late phase: significantly suppressed ear swelling
[1]; administration started after the induction of the late phase
  ear swelling, very late phase, delayed start of dosing: effect of compound A in the very late phase was observed
[1]; one hour after antigen application
  ear swelling, early phase: significantly suppressed ear swelling
[2]
  number of scratching movements: suppressed the number of scratching movements
Human basophils
  production of leukotrienes (C4/D4/E4): suppressive action
[3]
  ear swelling, very late phase: significantly suppressed ear swelling
